Source: patent publication US10329273B2, “Tetrazolone-substituted dihydropyridinone MGAT2 inhibitors” (BRISTOL-MYERS SQUIBB COMPANY, priority 2014, dated 2019)

Biological target: human MGAT-2 (Homo sapiens (Human), UniProt Q3SYC2)
Assay: MGAT LCMS assay
Assay type: biochemical
Settings: human MGAT-2 membranes expressed in Sf9 cells; 100 μM 2-oleoylglycerol, 15 μM oleoyl-coenzyme A; read-out: h-MGAT LCMS IC50
Protocol: The MGAT enzyme reactions were performed in Corning FALCON® 96-well polypropylene plates, in a total volume of 60 μL of 50 mM potassium phosphate buffer pH 7.4, containing a final concentration of 100 μM 2-oleoylglycerol, 15 μM oleoyl-coenzyme A and 0.0013 μg/μL human or mouse MGAT-2 or 0.0026 μg/μL rat recombinant MGAT-2 membranes expressed in Sf9 cells. Assay plates were run through a fully automated robotics system and shaken for 5 seconds every minute for a total 10 minutes. The reactions were then quenched with 120 μL of ice cold methanol containing 1 μg/mL 1,2-distearoyl-rac-glycerol as the internal standard. Plates were shaken for 2 minutes and spun down to remove protein precipitation. After the spin, samples were transferred to LC/MS compatible PCR plates. For LC/MS analysis, a ThermoFisher Surveyor pump, utilizing a Waters SYMMETRY® C8, 50×2.1 mm column, was used for the chromatography of enzyme products. The buffer system consists of 0.1% formic acid in water with a mobile phase consisting 0.1% formic acid in methanol. The shallow gradient is 90-100% mobile phase in 0.2 min with a total run time of 2.3 min. […]
The exemplified Examples disclosed below were tested in the MGAT2 in vitro assays described above and were found having MGAT2 inhibitory activity. Table 1 below lists human MGAT2 IC50 values measured for the following examples.

Sequence of human MGAT-2 (Q3SYC2 whole entry): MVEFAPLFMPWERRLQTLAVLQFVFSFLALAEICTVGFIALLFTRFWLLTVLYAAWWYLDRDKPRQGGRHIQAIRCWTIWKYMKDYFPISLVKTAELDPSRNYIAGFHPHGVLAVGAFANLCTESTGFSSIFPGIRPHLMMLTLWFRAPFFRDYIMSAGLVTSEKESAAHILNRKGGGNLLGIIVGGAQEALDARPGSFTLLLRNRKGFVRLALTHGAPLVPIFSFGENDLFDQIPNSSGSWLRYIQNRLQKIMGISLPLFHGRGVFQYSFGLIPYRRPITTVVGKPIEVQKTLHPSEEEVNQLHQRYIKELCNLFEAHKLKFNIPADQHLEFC

An IC50 of 5 nM was found for `O=C1N[C@@](c2ccc(OCCCC(F)(F)F)cc2F)(C(F)(F)F)CC(c2ccn(CC3CCC3)n2)=C1n1nn[nH]c1=O` [Example 16] in this work.
